“Also recorded” adds a separate entry of the source.
Key:
[1] = system: PMBCs; assay: IC50 versus treatment time, PMBCs; type: cell-based; settings: normal cells PMBCs
Procedure: The studies described herein discovered counter-intuitively that cancer cells and cancer stem cells requires much shorter exposure than normal cells to be killed by Compound 1. Normal cells can tolerate up to 24 hours of exposure to Compound 1. Furthermore, the studies here discovered that normal cells can recover after a short period of no-drug exposure, while cancer cells cannot recover once they are exposed to a certain concentration of the Compound 1 for at least 2 hours. Based on these studies, a special pharmacokinetic exposure [termed selective pharmacokinetic profile (SPP), or preferred pharmacokinetic profile (PPP), which is used interchangeably in this publication] was designed for Compound 1 using the data shown below in Table 14 for achieving selective antitumor activity in patients (FIG. 24).

[2] = Phase I clinical trial: safety and adverse events
[3] = Phase I patients, 20-2000 mg/day oral
[4] = Phase I, dose escalated from 20 mg to 2000 mg/day

CC(=O)c1cc2c(o1)C(=O)c1ccccc1C2=O [Compound 1, 2-acetyl-4H,9H-naphtho[2,3-b]furan-4,9-dione]
IC50 ([1]; treatment time 12-24 h): 14 µM
IC50 ([1]; treatment time 72 h): 3 µM
tolerability in humans ([2]; 20 mg QD): good tolerability
tolerability in humans ([2]; 500 mg TID): good tolerability
Anorexia, Any Grade, # of Events [2, 3]: 4
Anorexia, Any Grade, % of Total [2, 3]: 4.9%
Anorexia, Grade 1, # of Events [2, 3]: 3
Anorexia, Grade 1, % of Total [2, 3]: 3.7%
Anorexia, Grade 2, # of Events [2, 3]: 1
Anorexia, Grade 2, % of Total [2, 3]: 1.2%
Anorexia, Grade 3, # of Events [2, 3]: 0
Anorexia, Grade 3, % of Total [2, 3]: 0.0%
Diarrhea, Any Grade, # of Events [2, 3]: 23
Diarrhea, Any Grade, % of Total [2, 3]: 28.4%
Diarrhea, Grade 1, # of Events [2, 3]: 20
Diarrhea, Grade 1, % of Total [2, 3]: 24.7%
Diarrhea, Grade 2, # of Events [2, 3]: 2
Diarrhea, Grade 2, % of Total [2, 3]: 2.5%
Diarrhea, Grade 3, # of Events [2, 3]: 2
Diarrhea, Grade 3, % of Total [2, 3]: 2.5%
Dysgusia, Any Grade, # of Events [2, 3]: 3
Dysgusia, Any Grade, % of Total [2, 3]: 3.7%
Dysgusia, Grade 1, # of Events [2, 3]: 3
Dysgusia, Grade 1, % of Total [2, 3]: 3.7%
Dysgusia, Grade 2, # of Events [2, 3]: 0
Dysgusia, Grade 2, % of Total [2, 3]: 0.0%
Dysgusia, Grade 3, # of Events [2, 3]: 0
Dysgusia, Grade 3, % of Total [2, 3]: 0.0%
Fatigue, Any Grade, # of Events [2, 3]: 4
Fatigue, Any Grade, % of Total [2, 3]: 4.9%
Fatigue, Grade 1, # of Events [2, 3]: 1
Fatigue, Grade 1, % of Total [2, 3]: 1.2%
Fatigue, Grade 2, # of Events [2, 3]: 2
Fatigue, Grade 2, % of Total [2, 3]: 2.5%
Fatigue, Grade 3, # of Events [2, 3]: 1
Fatigue, Grade 3, % of Total [2, 3]: 1.2%
Fever, Any Grade, # of Events [2, 3]: 2
Fever, Any Grade, % of Total [2, 3]: 2.5%
Fever, Grade 1, # of Events [2, 3]: 1
Fever, Grade 1, % of Total [2, 3]: 1.2%
Fever, Grade 2, # of Events [2, 3]: 1
Fever, Grade 2, % of Total [2, 3]: 1.2%
Fever, Grade 3, # of Events [2, 3]: 0
Fever, Grade 3, % of Total [2, 3]: 0.0%
Loose stools, Any Grade, # of Events [2, 3]: 2
Loose stools, Any Grade, % of Total [2, 3]: 2.5%
Loose stools, Grade 1, # of Events [2, 3]: 2
Loose stools, Grade 1, % of Total [2, 3]: 2.5%
Loose stools, Grade 2, # of Events [2, 3]: 0
Loose stools, Grade 2, % of Total [2, 3]: 0.0%
Loose stools, Grade 3, # of Events [2, 3]: 0
Loose stools, Grade 3, % of Total [2, 3]: 0.0%
Nausea, Any Grade, # of Events [2, 3]: 10
Nausea, Any Grade, % of Total [2, 3]: 12.3%
Nausea, Grade 1, # of Events [2, 3]: 8
Nausea, Grade 1, % of Total [2, 3]: 9.9%
Nausea, Grade 2, # of Events [2, 3]: 2
Nausea, Grade 2, % of Total [2, 3]: 2.5%
Nausea, Grade 3, # of Events [2, 3]: 0
Nausea, Grade 3, % of Total [2, 3]: 0.0%
Skin Rash, Any Grade, # of Events [2, 3]: 2
Skin Rash, Any Grade, % of Total [2, 3]: 2.5%
Skin Rash, Grade 1, # of Events [2, 3]: 2
Skin Rash, Grade 1, % of Total [2, 3]: 2.5%
Skin Rash, Grade 2, # of Events [2, 3]: 0
Skin Rash, Grade 2, % of Total [2, 3]: 0.0%
Skin Rash, Grade 3, # of Events [2, 3]: 0
Skin Rash, Grade 3, % of Total [2, 3]: 0.0%
Urine Color Change, Any Grade, # of Events [2, 3]: 2
Urine Color Change, Any Grade, % of Total [2, 3]: 2.5%
Urine Color Change, Grade 1, # of Events [2, 3]: 2
Urine Color Change, Grade 1, % of Total [2, 3]: 2.5%
Urine Color Change, Grade 2, # of Events [2, 3]: 0
Urine Color Change, Grade 2, % of Total [2, 3]: 0.0%
Urine Color Change, Grade 3, # of Events [2, 3]: 0
Urine Color Change, Grade 3, % of Total [2, 3]: 0.0%
Vomiting, Any Grade, # of Events [2, 3]: 14
Vomiting, Any Grade, % of Total [2, 3]: 17.3%
Vomiting, Grade 1, # of Events [2, 3]: 13
Vomiting, Grade 1, % of Total [2, 3]: 16.0%
Vomiting, Grade 2, # of Events [2, 3]: 1
Vomiting, Grade 2, % of Total [2, 3]: 1.2%
Vomiting, Grade 3, # of Events [2, 3]: 0
Vomiting, Grade 3, % of Total [2, 3]: 0.0%
abdominal cramps, Any Grade, # of Events [2, 3]: 6
abdominal cramps, Any Grade, % of Total [2, 3]: 7.4%
abdominal cramps, Grade 1, # of Events [2, 3]: 5
abdominal cramps, Grade 1, % of Total [2, 3]: 6.2%
abdominal cramps, Grade 2, # of Events [2, 3]: 1
abdominal cramps, Grade 2, % of Total [2, 3]: 1.2%
abdominal cramps, Grade 3, # of Events [2, 3]: 0
abdominal cramps, Grade 3, % of Total [2, 3]: 0.0%
decreased appetite, Any Grade, # of Events [2, 3]: 2
decreased appetite, Any Grade, % of Total [2, 3]: 2.5%
decreased appetite, Grade 1, # of Events [2, 3]: 1
decreased appetite, Grade 1, % of Total [2, 3]: 1.2%
decreased appetite, Grade 2, # of Events [2, 3]: 1
decreased appetite, Grade 2, % of Total [2, 3]: 1.2%
decreased appetite, Grade 3, # of Events [2, 3]: 0
decreased appetite, Grade 3, % of Total [2, 3]: 0.0%
dizzyness, Any Grade, # of Events [2, 3]: 2
dizzyness, Any Grade, % of Total [2, 3]: 2.5%
dizzyness, Grade 1, # of Events [2, 3]: 2
dizzyness, Grade 1, % of Total [2, 3]: 2.5%
dizzyness, Grade 2, # of Events [2, 3]: 0
dizzyness, Grade 2, % of Total [2, 3]: 0.0%
dizzyness, Grade 3, # of Events [2, 3]: 0
dizzyness, Grade 3, % of Total [2, 3]: 0.0%
weakness, Any Grade, # of Events [2, 3]: 5
weakness, Any Grade, % of Total [2, 3]: 6.2%
weakness, Grade 1, # of Events [2, 3]: 2
weakness, Grade 1, % of Total [2, 3]: 2.5%
weakness, Grade 2, # of Events [2, 3]: 3
weakness, Grade 2, % of Total [2, 3]: 3.7%
weakness, Grade 3, # of Events [2, 3]: 0
weakness, Grade 3, % of Total [2, 3]: 0.0%
tolerability of dose escalation in patients ([2]; Phase I, 20 mg to 2000 mg/day): without drug-induced adverse effects; also recorded: well tolerated
dose-limiting toxicity [2, 4]: No dose-limiting toxicity was observed; also recorded: No dose limiting toxicity was observed
maximum tolerated dose (MTD) [2, 4]: not reached; also recorded: neither MTD nor RP2D has been reached

From patent US9084766B2, “Compounds and compositions for targeting cancer stem cells” (Boston Biomedical, Inc., priority 2010, dated 2015)
